Laboratory results as given in publication PMC4154495 (Molecular cancer therapeutics, 2014).

Target: T1, ETV1 (ETS variant 1) (Homo sapiens, UniProt P50549)
T1 sequence (P50549 1-477): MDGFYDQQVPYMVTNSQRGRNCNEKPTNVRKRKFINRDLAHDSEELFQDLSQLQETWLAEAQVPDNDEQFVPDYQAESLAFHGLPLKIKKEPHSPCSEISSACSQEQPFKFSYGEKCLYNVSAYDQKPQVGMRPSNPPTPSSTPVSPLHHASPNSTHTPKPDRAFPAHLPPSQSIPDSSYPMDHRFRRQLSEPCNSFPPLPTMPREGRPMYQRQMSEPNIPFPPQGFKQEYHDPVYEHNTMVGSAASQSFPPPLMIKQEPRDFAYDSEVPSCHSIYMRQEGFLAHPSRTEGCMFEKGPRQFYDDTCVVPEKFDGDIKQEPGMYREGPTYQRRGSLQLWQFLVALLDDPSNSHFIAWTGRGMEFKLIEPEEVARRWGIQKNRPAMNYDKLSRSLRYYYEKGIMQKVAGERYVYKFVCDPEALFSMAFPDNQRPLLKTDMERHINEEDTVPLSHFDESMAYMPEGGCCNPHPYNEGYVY
Test: SPR
Type: binding

Kd: 17.1 µM
Structure (SMILES): COc1ccc(Nc2nc(N)nc(CN3CCCCC3)n2)cc1 [compound 1, BRD32048]
